According to the supplement of paper PMC9663587:

Key:
[1] = compound: T1, CCOc1cc2ncc(C#N)c(Nc3ccc(OCc4ccccn4)c(Cl)c3)c2cc1NC(=O)/C=C/CN(C)C [Neratinib/HKI272]; test: GR value, 72 h; higher = faster growth (1 = untreated, <0 = killing);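 also: breast cancer and non-malignant breast epithelial lines, nine half-log doses, viable cells counted by Hoechst and LIVE/DEAD dye imaging versus time-zero plates and DMSO controls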
[2] = compound: T2, CN1CC[C@H](c2c(O)cc(O)c3c(=O)cc(-c4ccccc4Cl)oc23)[C@H](O)C1 [Flavopiridol]; test: as above
[3] = compound: CCc1cnn2c(NCc3ccc[n+]([O-])c3)cc(N3CCCC[C@H]3CCO)nc12; test: increase in dead-cell fraction, 72 h; higher = more death;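 also: breast cancer cell lines in 384-well plates, stained with Hoechst plus LIVE/DEAD far red dye and imaged, cells above an LDR intensity threshold counted dead, Hoechst-negative corpses included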
[4] = compound: CN(C)C/C=C/C(=O)Nc1ccc(C(=O)Nc2cccc(Nc3ncc(Cl)c(-c4c[nH]c5ccccc45)n3)c2)cc1 [THZ1]; test: as above
[5] = compound: T1, Neratinib/HKI272; test: as above
[6] = compound: CC(=O)c1c(C)c2cnc(Nc3ccc(N4CCNCC4)cn3)nc2n(C2CCCC2)c1=O; test: as above
[7] = compound: C=CC(=O)Nc1ccc(C(=O)Nc2[nH]nc3c2CN(C(=O)N[C@H](CN(C)C)c2ccccc2)C3(C)C)cc1 [YKL-5-124]; test: as above
[8] = compound: CC(=O)c1c(C)c2cnc(Nc3ccc(N4CCN(CCOCCOCCOCCNC(=O)COc5cccc6c5C(=O)N(C5CCC(=O)NC5=O)C6=O)CC4)cn3)nc2n(C2CCCC2)c1=O [BSJ-03-123]; test: as above
[9] = compound: CN(C)C/C=C/C(=O)Nc1ccc(C(=O)N2CCC[C@@H](Nc3ncc(Cl)c(-c4c[nH]c5ccccc45)n3)C2)cc1 [THZ531]; test: as above
[10] = compound: CN(C)C(=O)c1cc2cnc(Nc3ccc(N4CCNCC4)cn3)nc2n1C1CCCC1 [LEE011/Ribociclib]; test: as above
[11] = compound: T2, Flavopiridol; test: as above
[12] = compound: CCN1CCN(Cc2ccc(Nc3ncc(F)c(-c4cc(F)c5nc(C)n(C(C)C)c5c4)n3)nc2)CC1; test: as above

Cell Line: MDAMB436
- GR value ([1]; 0.0003162 µM): 1 GR
- GR value ([1]; 0.001 µM): 0.997 GR
- GR value ([1]; 0.003162 µM): 1.03 GR
- GR value ([1]; 0.01 µM): 1.04 GR
- GR value ([1]; 0.03162 µM): 0.993 GR
- GR value ([1]; 0.1 µM): 0.878 GR
- GR value ([1]; 0.3162 µM): 0.641 GR
- GR value ([1]; 1 µM): 0.43 GR
- GR value ([1]; 3.162 µM): 0.0253 GR
- GR value ([2]; 0.0001 µM): 0.988 GR
- GR value ([2]; 0.0003162 µM): 0.97 GR
- GR value ([2]; 0.001 µM): 0.97 GR
- GR value ([2]; 0.003162 µM): 0.889 GR
- GR value ([2]; 0.01 µM): 1.01 GR
- GR value ([2]; 0.03162 µM): 0.905 GR
- GR value ([2]; 0.1 µM): 0.701 GR
- GR value ([2]; 0.3162 µM): 0.125 GR
- GR value ([2]; 1 µM): -0.0603 GR
- increase in dead-cell fraction ([3]; 0.0001 µM): -0.0027
- increase in dead-cell fraction ([3]; 0.0003162 µM): -0.0028
- increase in dead-cell fraction ([3]; 0.001 µM): 0.0008
- increase in dead-cell fraction ([3]; 0.003162 µM): 0.0055
- increase in dead-cell fraction ([3]; 0.01 µM): 0.0157
- increase in dead-cell fraction ([3]; 0.03162 µM): 0.0896
- increase in dead-cell fraction ([3]; 0.1 µM): 0.0459
- increase in dead-cell fraction ([3]; 0.3162 µM): 0.0256
- increase in dead-cell fraction ([3]; 1 µM): 0.035
- increase in dead-cell fraction ([4]; 0.0001 µM): 0.0026
- increase in dead-cell fraction ([4]; 0.0003162 µM): -0.0097
- increase in dead-cell fraction ([4]; 0.001 µM): -0.0017
- increase in dead-cell fraction ([4]; 0.003162 µM): -0.0001
- increase in dead-cell fraction ([4]; 0.01 µM): -0.006
- increase in dead-cell fraction ([4]; 0.03162 µM): -0.0078
- increase in dead-cell fraction ([4]; 0.1 µM): 0.0476
- increase in dead-cell fraction ([4]; 0.3162 µM): 0.0477
- increase in dead-cell fraction ([4]; 1 µM): 0.0644
- increase in dead-cell fraction ([5]; 0.0003162 µM): 0.0013
- increase in dead-cell fraction ([5]; 0.001 µM): 0.0034
- increase in dead-cell fraction ([5]; 0.003162 µM): -0.0005
- increase in dead-cell fraction ([5]; 0.01 µM): 0.0014
- increase in dead-cell fraction ([5]; 0.03162 µM): 0.0028
- increase in dead-cell fraction ([5]; 0.1 µM): 0.0066
- increase in dead-cell fraction ([5]; 0.3162 µM): 0.0167
- increase in dead-cell fraction ([5]; 1 µM): 0.0223
- increase in dead-cell fraction ([5]; 3.162 µM): 0.0987
- increase in dead-cell fraction ([6]; 0.0003162 µM): -0.0017
- increase in dead-cell fraction ([6]; 0.001 µM): 0.0024
- increase in dead-cell fraction ([6]; 0.003162 µM): -0.0027
- increase in dead-cell fraction ([6]; 0.01 µM): -0.0025
- increase in dead-cell fraction ([6]; 0.03162 µM): 0
- increase in dead-cell fraction ([6]; 0.1 µM): 0.0005
- increase in dead-cell fraction ([6]; 0.3162 µM): -0.0024
- increase in dead-cell fraction ([6]; 1 µM): -0.0052
- increase in dead-cell fraction ([6]; 3.162 µM): 0.0044
- increase in dead-cell fraction ([7]; 0.001 µM): -0.0039
- increase in dead-cell fraction ([7]; 0.003162 µM): 0.0007
- increase in dead-cell fraction ([7]; 0.01 µM): 0.019
- increase in dead-cell fraction ([7]; 0.03162 µM): 0.0153
- increase in dead-cell fraction ([7]; 0.1 µM): 0.0342
- increase in dead-cell fraction ([7]; 0.3162 µM): 0.0446
- increase in dead-cell fraction ([7]; 1 µM): 0.0289
- increase in dead-cell fraction ([7]; 3.162 µM): 0.027
- increase in dead-cell fraction ([7]; 10 µM): 0.132
- increase in dead-cell fraction ([8]; 0.001 µM): -0.0105
- increase in dead-cell fraction ([8]; 0.003162 µM): 0.0015
- increase in dead-cell fraction ([8]; 0.01 µM): 0.0056
- increase in dead-cell fraction ([8]; 0.03162 µM): -0.0027
- increase in dead-cell fraction ([8]; 0.1 µM): 0.0104
- increase in dead-cell fraction ([8]; 0.3162 µM): 0.0058
- increase in dead-cell fraction ([8]; 1 µM): -0.0041
- increase in dead-cell fraction ([8]; 3.162 µM): 0.0011
- increase in dead-cell fraction ([8]; 10 µM): 0.0742
- increase in dead-cell fraction ([9]; 0.0001 µM): -0.0141
- increase in dead-cell fraction ([9]; 0.0003162 µM): -0.004
- increase in dead-cell fraction ([9]; 0.001 µM): 0.0035
- increase in dead-cell fraction ([9]; 0.003162 µM): -0.0059
- increase in dead-cell fraction ([9]; 0.01 µM): -0.0057
- increase in dead-cell fraction ([9]; 0.03162 µM): 0.0007
- increase in dead-cell fraction ([9]; 0.1 µM): 0.0043
- increase in dead-cell fraction ([9]; 0.3162 µM): 0.0247
- increase in dead-cell fraction ([9]; 1 µM): 0.0705
- increase in dead-cell fraction ([10]; 0.001 µM): -0.0008
- increase in dead-cell fraction ([10]; 0.003162 µM): -0.0095
- increase in dead-cell fraction ([10]; 0.01 µM): -0.0034
- increase in dead-cell fraction ([10]; 0.03162 µM): -0.0032
- increase in dead-cell fraction ([10]; 0.1 µM): 0.0007
- increase in dead-cell fraction ([10]; 0.3162 µM): -0.0014
- increase in dead-cell fraction ([10]; 1 µM): -0.0035
- increase in dead-cell fraction ([10]; 3.162 µM): -0.0137
- increase in dead-cell fraction ([10]; 10 µM): 0.0049
- increase in dead-cell fraction ([11]; 0.0001 µM): 0.003
- increase in dead-cell fraction ([11]; 0.0003162 µM): -0.0059
- increase in dead-cell fraction ([11]; 0.001 µM): -0.0173
- increase in dead-cell fraction ([11]; 0.003162 µM): 0.0048
- increase in dead-cell fraction ([11]; 0.01 µM): -0.0068
- increase in dead-cell fraction ([11]; 0.03162 µM): -0.002
- increase in dead-cell fraction ([11]; 0.1 µM): 0.0119
- increase in dead-cell fraction ([11]; 0.3162 µM): 0.0798
- increase in dead-cell fraction ([11]; 1 µM): 0.0954
- increase in dead-cell fraction ([12]; 0.001 µM): 0.0024
- increase in dead-cell fraction ([12]; 0.003162 µM): -0.005
- increase in dead-cell fraction ([12]; 0.01 µM): 0.0007
- increase in dead-cell fraction ([12]; 0.03162 µM): -0.0009
- increase in dead-cell fraction ([12]; 0.1 µM): 0.0076
- increase in dead-cell fraction ([12]; 0.3162 µM): 0.0116
- increase in dead-cell fraction ([12]; 1 µM): 0.0346
- increase in dead-cell fraction ([12]; 3.162 µM): 0.0531
- increase in dead-cell fraction ([12]; 10 µM): 0.316
